According to patent US8410068B2, “Compounds for the treatment or alleviation of edema, and methods for their use” (Index Pharmaceuticals AB, priority 2007, dated 2013):
Where “and” joins values, the source holds several entries; their conditions need not be identical. Equal entries are not always repeated.

Columns and labels:
[1] = test system: OVA induced airway inflammation; assay: Ovalbumin (OVA) induced allergic airway inflammation, BAL fluid cell counts; type: in vivo, Balb/c mice
Description: Mice were sensitized intraperitoneally with 200 μL OVA/aluminium hydroxide gel (1:3) on day 0 and 12 (see FIG. 6). OVA (chicken egg albumin grade V, Sigma, St. Louis, Mo.) was dissolved in saline and mixed with aluminium hydroxide gel to a concentration of 50 μg/mL by rotation at 4° C. for 3 h. On days 23, 26, 30 and 33 (see FIG. 6), mice were challenged in the lungs by inhalation of aerosolized OVA for 30 minutes using a Batelle exposure chamber. Aerosols were generated by a compressed-air nebulizer (Collison 6-jet) at airflow 7.4 L/min using a nebulizer concentration of 10 mg/mL OVA dissolved in PBS (Sigma, St Louis, Mo., USA). The control group with non-sensitized animals received no other treatment than aerosolized OVA at days 23, 26, 30 and 33.
In this OVA model (FIG. 6), a total of 4 oligonucleotides were tested, IDX9025, IDX9038, IDX9053 (Table 1, SEQ ID NO 2-4) and IDX0150 (Table 3, SEQ ID NO 11). The oligonucleotides were synthesized by biomers.net GmbH, Ulm, Germany and stored frozen at −20° C. The oligonucleotides were diluted with PBS to the working concentration (1,247 μg/μL) and kept at −20° C. until the first day of instillation, thereafter they were placed at 4° C.
In a first experiment, both prophylactic and therapeutic protocols were tested (see FIG. 6). The drug treatment consisted of intranasal instillations of IDX0150 (1,247 μg/μL, provided by InDex Pharmaceuticals AB, Stockholm, Sweden) on days 16 and 21 (prophylactic protocol), on days 30 and 33 (therapeutic protocol A) or on days 30 and 34 (therapeutic protocol B). The instillations in the therapeutic protocols (A & B) on days 30 and 33 were given 4 h after aerosol challenge. The second instillation in protocol B on day 34 was given 24 h after the last aerosol challenge. The drug was administered in 40 μL PBS giving a dose of ˜50 μg/mice (49.88 μg/mice). The two sensitized sham-treatment groups were instilled with PBS, the same total volume as for the treatment groups, according to either the prophylactic protocol (days 16 and 21) or to the therapeutic protocol A (days 30 and 33).
In a second experiment, since administration of IDX0150 in the first experiment using prophylactic protocol (FIG. 6) gave a significant reduction of airway inflammation (FIG. 7), three other substances were tested with the same protocol. The drug treatment consisted of intranasal instillations of IDX9025, IDX9038 and IDX9053 (Table 1) (1,247 μg/μL, provided by InDex Pharmaceuticals AB) on days 16 and 21 (see FIG. 6, prophylactic protocol). All substances were administered in 40 μL PBS giving a dose of ˜50 μg/mice (49.88 μg/mice). The two sensitized sham-treatment groups were instilled with PBS, the same total volume as for the treatment groups, according to the prophylactic protocol (days 16 and 21).
Mice were killed by cervical dislocation 42 h after the last OVA aerosol challenge. The trachea was cannulated with polyethylene tubing (Becton Dickinson, Sparks, Md., USA) and bronchoalveolar lavage (BAL) was performed using 4×1 mL aliquots of ice-cold Hank's balanced salt solution (HBSS) (Sigma, St Louis, Mo., USA). The BAL fluid was centrifuged (400 g, 10 min, 4° C.) and the BAL fluid cells were resuspended in 0.4 mL PBS. The total number of leukocytes counted using tryphan blue exclusion in a Barker chamber. Duplicate Cytospin (Cytospin 3, Shandon, Runcorn, UK) preparations of BAL fluid cells were stained with May Grünewald Giemsa for differential counts, using standard morphological criteria.
Statistical comparisons were performed using One-way analysis of variance (ANOVA) using Dunnett's post hoc correction to compare with sensitized PBS treated control mice (GraphPad Prism 3). Data are shown as mean±standard deviation. P<0.05 was considered significant.

[2] = test system: thioglycolate induced pleurisy; assay: Thioglycolate induced pleurisy; type: in vivo, C57/Bl6 mice; settings: 50 μg/mouse i.p. 20 min before induction of pleurisy
Description: Mice were anesthetized by an intraperitoneal injection of 0.15-0.20 ml of a mixture of ketamine (Ketalar® Parke-Davis; 25 mg/ml) and xylazine (Narcoxyl Vet.® Veterinaria AG; 5 mg/ml).
The left jugular vein was cannulated with polyethylene tubing (PE10) for intravenous administration (i.v.). A skin incision was made on the right side of the chest. Following dissection of the underlying muscle, pleurisy (inflammation of the lung sack) was induced by a single intrapleural injection of 100 μl of thioglycolate (Sigma). Sterile PBS was used as negative control.
FITC-conjugated dextran in PBS (100 μl, 30 mg/ml) was injected i.v. After 4 h, the animals were euthanized with an overdose of anaesthesia, the chest was carefully opened and the exudate was removed by aspiration and the volume noted. The thorax was then rinsed with 1 ml of ice-cold 3 mM EDTA in PBS. Exudate which was contaminated with red blood cells was discarded.
The exudate and rinsed material was centrifuged at 1500 g for 5 min and the supernatant was used for measurement of fluorescence intensity in a fluorometer (Fluoroskan Acsent, LabSystems) and clearance volume of FITC-dextran was calculated. […]
Cells from the exudate were stained with neutrophil and macrophage specific antibodies and were analyzed by flow cytometry (FACSort and CellQuest software, BD). […]

G*G*A*ACAGTTCGTCCAT*G*G*C (phosphorothioate linkages, as printed in the source, key not given here) [IDX0150, oligonucleotide used as control; * = phosphorothioate modification]
migration of eosinophils into the BAL fluid ([1]; prophylactic protocol, 50 μg/animal intranasal on day 16 and 21, P<0.001): significantly reduce | migration of leukocytes into the BAL fluid ([1]; prophylactic protocol, 50 μg/animal intranasal on day 16 and 21, P<0.05): significantly reduce | effect on BAL fluid cells, therapeutic arm ([1]; therapeutic protocols, 50 μg intranasal, days 30 and 33 (A) or 30 and 34 (B)): no statistically proven effects | reduction of number of PMN in pleural exudates ([2]; compared to inflamed mice (PBS)): 42% and 40.9% | reduction in clearance volume of pleural edema (vascular permeability) ([2]; compared to thioglycolate treatment): 68.2% and 69.2%
